# Experimental data from patent publication US9562035B2, “Benzamide derivative useful as FASN inhibitors for the treatment of cancer” (Janssen Pharmaceutica NV, priority 2013, dated 2017).
# Tests used:
# [1] = molecular target: T1, hFASN enzyme (full length) (Homo sapiens, UniProt P49327); experiment: Fatty Acid Synthase (FASN) Inhibition Scintillation Proximity Assay; format: biochemical; details: for IC50: mean where tested more than once, ~ = standard error of pIC50 larger than 0.5; for inhibition at 10 µM: read-out: FASN % Effect @1E−05M
# T1 construct: 10 μL hFASN enzyme (full length, 300 ng, purified in house); made in house
# T1 sequence (P49327 whole entry): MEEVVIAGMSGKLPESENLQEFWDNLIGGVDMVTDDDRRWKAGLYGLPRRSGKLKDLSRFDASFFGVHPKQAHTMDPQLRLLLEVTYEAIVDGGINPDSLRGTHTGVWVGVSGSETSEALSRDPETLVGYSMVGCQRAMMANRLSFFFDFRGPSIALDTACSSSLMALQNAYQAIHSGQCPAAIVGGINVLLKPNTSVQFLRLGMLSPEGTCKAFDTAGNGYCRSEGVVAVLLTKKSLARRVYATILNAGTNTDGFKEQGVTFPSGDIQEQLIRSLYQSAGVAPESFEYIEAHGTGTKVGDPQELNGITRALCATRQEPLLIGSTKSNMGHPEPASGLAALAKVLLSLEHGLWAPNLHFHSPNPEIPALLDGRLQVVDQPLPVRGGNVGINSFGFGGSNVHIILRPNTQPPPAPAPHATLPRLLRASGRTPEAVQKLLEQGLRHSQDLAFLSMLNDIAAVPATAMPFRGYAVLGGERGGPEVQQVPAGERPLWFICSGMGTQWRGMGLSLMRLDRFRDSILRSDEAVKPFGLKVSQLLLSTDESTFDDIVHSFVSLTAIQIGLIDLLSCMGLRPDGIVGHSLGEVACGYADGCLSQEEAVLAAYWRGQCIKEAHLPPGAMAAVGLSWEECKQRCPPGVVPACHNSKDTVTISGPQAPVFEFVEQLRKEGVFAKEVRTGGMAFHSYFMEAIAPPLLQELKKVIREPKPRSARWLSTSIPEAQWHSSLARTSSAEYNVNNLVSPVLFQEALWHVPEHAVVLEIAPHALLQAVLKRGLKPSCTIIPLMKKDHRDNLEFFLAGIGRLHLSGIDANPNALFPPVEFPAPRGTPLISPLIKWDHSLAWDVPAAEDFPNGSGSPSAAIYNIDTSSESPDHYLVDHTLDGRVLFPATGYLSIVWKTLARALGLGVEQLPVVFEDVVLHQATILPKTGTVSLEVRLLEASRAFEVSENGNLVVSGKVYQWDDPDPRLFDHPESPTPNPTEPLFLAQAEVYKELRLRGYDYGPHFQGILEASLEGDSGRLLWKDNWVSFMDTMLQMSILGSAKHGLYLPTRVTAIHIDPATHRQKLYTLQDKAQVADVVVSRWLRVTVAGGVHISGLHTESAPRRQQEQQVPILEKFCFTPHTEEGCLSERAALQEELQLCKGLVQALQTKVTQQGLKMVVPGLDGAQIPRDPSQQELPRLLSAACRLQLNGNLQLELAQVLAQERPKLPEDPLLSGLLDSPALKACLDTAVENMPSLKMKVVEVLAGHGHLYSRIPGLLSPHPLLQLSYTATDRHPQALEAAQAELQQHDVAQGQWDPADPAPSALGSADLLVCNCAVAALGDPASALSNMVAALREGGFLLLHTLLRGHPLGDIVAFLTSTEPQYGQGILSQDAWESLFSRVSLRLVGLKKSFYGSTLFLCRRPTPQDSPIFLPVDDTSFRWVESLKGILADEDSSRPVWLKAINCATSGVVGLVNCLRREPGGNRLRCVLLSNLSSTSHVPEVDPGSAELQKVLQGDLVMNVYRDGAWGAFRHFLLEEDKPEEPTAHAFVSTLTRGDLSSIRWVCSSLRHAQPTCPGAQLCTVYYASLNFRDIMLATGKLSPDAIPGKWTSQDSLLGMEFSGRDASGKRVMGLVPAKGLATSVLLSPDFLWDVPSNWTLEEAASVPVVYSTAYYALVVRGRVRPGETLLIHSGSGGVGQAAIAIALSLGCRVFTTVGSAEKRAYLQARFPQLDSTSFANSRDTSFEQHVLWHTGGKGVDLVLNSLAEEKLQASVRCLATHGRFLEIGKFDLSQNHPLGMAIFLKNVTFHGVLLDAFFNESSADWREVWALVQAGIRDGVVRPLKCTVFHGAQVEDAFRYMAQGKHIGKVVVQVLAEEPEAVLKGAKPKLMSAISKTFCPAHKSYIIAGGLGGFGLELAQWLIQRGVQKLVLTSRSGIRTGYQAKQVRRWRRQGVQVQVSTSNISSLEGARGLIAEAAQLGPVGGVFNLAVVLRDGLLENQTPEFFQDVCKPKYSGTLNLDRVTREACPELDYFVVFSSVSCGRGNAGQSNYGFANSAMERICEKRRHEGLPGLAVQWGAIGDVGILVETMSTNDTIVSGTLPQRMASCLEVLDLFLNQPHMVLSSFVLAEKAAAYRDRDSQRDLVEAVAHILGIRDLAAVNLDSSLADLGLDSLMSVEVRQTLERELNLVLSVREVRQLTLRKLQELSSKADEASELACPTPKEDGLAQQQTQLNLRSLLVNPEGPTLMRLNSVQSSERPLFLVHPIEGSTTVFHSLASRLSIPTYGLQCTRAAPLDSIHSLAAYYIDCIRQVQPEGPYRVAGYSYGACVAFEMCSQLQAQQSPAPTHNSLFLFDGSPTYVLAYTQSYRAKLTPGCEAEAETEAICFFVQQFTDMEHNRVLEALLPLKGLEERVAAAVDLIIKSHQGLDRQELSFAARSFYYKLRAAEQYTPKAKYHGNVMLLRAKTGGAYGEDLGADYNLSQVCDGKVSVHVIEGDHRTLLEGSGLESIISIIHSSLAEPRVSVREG
# In short: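 Purified full-length human FASN (300 ng) incubated 60 min at room temperature with NADPH, [3H]-acetyl-CoA and malonyl-CoA in 100 mM KH2PO4 pH 7.5, 1 mM DTT; compound at 30 μM to 0.01 μM. [3H]-palmitate captured by SPA imaging beads; IC50 from 4-parameter fit, reported as pIC50.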
# [2] = molecular target: T2, FASN Keto-reductase Domain (Homo sapiens, UniProt P49327); experiment: Fatty Acid Synthase Keto-Reductase Domain (FASN KR) Inhibition; format: biochemical; details: mean where tested more than once; read-out: FASN K-R Domain pIC50 (converted)
# T2 construct: 10 μL hFASN enzyme (full length, 300 ng, purified in house) and 360 μM NADPH; made in house
# T2 sequence (P49327 whole entry, the tested form may be a part): as the sequence (P49327 whole entry) above
# In short: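 Full-length human FASN (300 ng) in 100 mM KH2PO4 pH 7.5 with 360 μM NADPH and 180 mM ethyl acetoacetate (stock); A340 decrease read over 20 min at room temperature.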
# A2780 ovarian cells [3] = experiment: A2780 Ovarian Cell Proliferation Assay in Lipid Reduced Medium, without Palmitate; format: cell-based; details: Homo sapiens, A2780; lipid reduced medium, without palmitate, 96 h, MTT; read-out: Proliferation A2780 w/o Palmitate pIC50 (converted)
# In short: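 A2780 cells were seeded in 10% FCS medium and switched next day to 10% lipid-reduced serum without palmitate. Compounds at 0.01–30 μM were added with 0.2% DMSO, 0.2% fatty-acid-free BSA and 0.25% ethanol final. After 96 h, MTT absorbance at 544 nm was normalized to plate controls, and IC50/pIC50 came from a 4-parameter logistic fit.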
# A2780 ovarian cells [4] = experiment: A2780 Ovarian Cell Proliferation Assay in Lipid Reduced Medium, with Palmitate (control); format: cell-based; details: Homo sapiens, A2780; lipid reduced medium, 25 μM palmitate, 96 h, MTT; read-out: Proliferation A2780 with Palmitate pIC50 (converted)
# In short: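 A2780 cells were seeded in RPMI1640 with 10% FCS, then switched next day to medium with 10% lipid-reduced serum. Compound was added with final 25 μM palmitate, 0.2% fatty-acid-free BSA and 0.2% DMSO, and incubated 96 h at 37 °C. Read-out was MTT absorbance at 544 nm; pIC50 = −log(IC50) from curve fit.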
IC50 [1] [nM],inhibition at 10 µM [1] [%],IC50 [2] [nM],IC50 (A2780 ovarian cells [3]) [nM],IC50 (A2780 ovarian cells [4]) [nM],Compound
20,101,32.4,8.13,~7590,"Cc1ccc(C(=O)N2CCC(c3ccc(-c4cnn(C)c4)cc3)CC2)cc1NC(=O)c1cnc(NC2CCC2)nc1 [Compound 162, 2-(cyclobutylamino)-N-(2-methyl-5-(4-(4-(1-methyl-1H-pyrazol-4-yl)phenyl)piperidine-1-carbonyl)phenyl)pyrimidine-5-carboxamide]"
43.7,101,93.3,126,> 10000,"Cc1ccc(C(=O)N2CCC(c3ccc(-c4cnn(C)c4)cc3)CC2)cc1NC(=O)c1ccc(F)cc1 [Compound 116, 4-fluoro-N-(2-methyl-5-(4-(4-(1-methyl-1H-pyrazol-4-yl)phenyl)piperidine-1-carbonyl)phenyl)benzamide]"
95.5,106,331,~195,> 10000,"CCCN1CCC(C(=O)Nc2cc(C(=O)N3CCC(c4ccc(-c5cnn(C)c5)cc4)CC3)ccc2C)C1 (stereo not shown) [Compound 186, N-(2-methyl-5-(4-(4-(1-methyl-1H-pyrazol-4-yl)phenyl)piperidine-1-carbonyl)phenyl)-1-propylpyrrolidine-3-carboxamide]"
141,103,302,~282,> 10000,"Cc1ccc(C(=O)N2CCC(c3ccc(-c4cnn(C)c4)cc3)CC2)cc1NC(=O)C1CN(C2CCCC2)C1 [Compound 187, 1-cyclopentyl-N-(2-methyl-5-(4-(4-(1-methyl-1H-pyrazol-4-yl)phenyl)piperidine-1-carbonyl)phenyl)azetidine-3-carboxamide]"
30.2,110,32.4,26.3,> 10000,"CSc1ccc(C(=O)Nc2cc(C(=O)N3CCC(c4ccc(-c5cnn(C)c5)cc4)CC3)ccc2C)cc1 [Compound 126, N-(2-methyl-5-(4-(4-(1-methyl-1H-pyrazol-4-yl)phenyl)piperidine-1-carbonyl)phenyl)-4-(methylthio)benzamide]"
158,99,457,151,> 10000,"Cc1ccc(C(=O)N2CCC(c3ccc(-c4cnn(C)c4)cc3)CC2)cc1NC(=O)C1CN(C(C)C)C1 [Compound 206, 1-isopropyl-N-(2-methyl-5-(4-(4-(1-methyl-1H-pyrazol-4-yl)phenyl)piperidine-1-carbonyl)phenyl)azetidine-3-carboxamide]"
18.6,101,75.9,117,> 10000,"Cc1ccc(C(=O)N2CCC(c3ccc(-c4cnn(C)c4)cc3)CC2)cc1NC(=O)c1ccc(Cl)cc1Cl [Compound 122, 2,4-dichloro-N-(2-methyl-5-(4-(4-(1-methyl-1H-pyrazol-4-yl)phenyl)piperidine-1-carbonyl)phenyl)benzamide]"
53.7,105,170,79.4,> 10000,"Cc1ccc(C(=O)N2CCC(c3ccc(-c4cnn(C)c4)cc3)CC2)cc1NC(=O)C1CCN(CC(C)(C)C)C1 (stereo not shown) [Compound 192, N-(2-methyl-5-(4-(4-(1-methyl-1H-pyrazol-4-yl)phenyl)piperidine-1-carbonyl)phenyl)-1-neopentylpyrrolidine-3-carboxamide]"

# Continued, compound first:
Compound,IC50 [1] [nM],inhibition at 10 µM [1] [%],IC50 [2] [nM],IC50 (A2780 ovarian cells [3]) [nM],IC50 (A2780 ovarian cells [4]) [nM]
"Cc1ccc(C(=O)N2CCC(c3ccc(-c4cnn(C)c4)cc3)CC2)cc1NC(=O)c1ccc(N2CCN[C@@H](CO)C2)nc1 [Compound 163, (3R)-6-(3-(hydroxymethyl)piperazin-1-yl)-N-(2-methyl-5-(4-(4-(1-methyl-1H-Pyrazol-4-yl)phenyl)piperidine-1-carbonyl)phenyl)nicotinamide]",28.8,105,46.8,13.2,> 10000
"Cc1ccc(C(=O)N2CCC(c3ccc(-c4ccnn4C)cc3)CC2)cc1NC(=O)c1ccc(NC(C)C)nc1 [Compound 44, 6-(Isopropylamino)-N-(2-methyl-5-(4-(4-(1-methyl-1H-pyrazol-5-yl)phenyl)piperidine-1-carbonyl)phenyl)nicotinamide]",61.7,102,89.1,155,> 10000
"Cc1ccc(C(=O)N2CCC(c3ccc(-n4ccnc4)cc3)CC2)cc1NC(=O)c1ccc(NC(C)C)nc1 [Compound #15, N-(5-(4-(4-(1H-imidazol-1-yl)phenyl)piperidine-1-carbonyl)-2-methylphenyl)-6-(isopropylamino)nicotinamide]",22.9,109,37.2,~47.9,> 15100
"Cc1ccc(C(=O)N2CC(c3ccc(-c4cnn(C)c4)cc3)C2)cc1NC(=O)c1ccc(NC2CCC2)nc1 [Compound 109, 6-(cyclobutylamino)-N-(2-methyl-5-(3-(4-(1-methyl-1H-pyrazol-4-yl)phenyl)azetidine-1-carbonyl)phenyl)nicotinamide]",14.5,119,31.6,~23.4,> 15100
"Cc1ccc(C(=O)N2CC(c3ccc(-c4cnn(C)c4)cc3)C2)cc1NC(=O)c1ccc(N2CCCC2)nc1 [Compound 106, N-(2-methyl-5-(3-(4-(1-methyl-1H-pyrazol-4-yl)phenyl)azetidine-1-carbonyl)phenyl)-6-(pyrrolidin-1-yl)nicotinamide]",10.7,113,24.5,79.4,> 15100
"Cc1ccc(C(=O)N2CCC(c3ccc(-c4cnn(C)c4C)cc3)CC2)cc1NC(=O)c1ccc(NC(C)C)nc1 [Compound 246, N-(5-(4-(4-(1,5-dimethyl-1H-pyrazol-4-yl)phenyl)piperidine-1-carbonyl)-2-methylphenyl)-6-(isopropylamino)nicotinamide]",53.7,110,245,112,8320
"Cc1ccc(C(=O)N2CCC(c3ccc(-c4cnn(C)c4)nc3)CC2)cc1NC(=O)c1ccc(NC(C)C)nc1 [Compound 268, 6-(isopropylamino)-N-(2-methyl-5-(4-(6-(1-methyl-1H-pyrazol-4-yl)pyridin-3-yl)piperidine-1-carbonyl)phenyl)nicotinamide]",166,104,1350,537,> 10000
"COc1ccc(C(=O)Nc2cc(C(=O)N3CCC(c4ccc(-c5cnn(C)c5)cc4)CC3)ccc2C)cc1Cl [Compound 155, 3-chloro-4-methoxy-N-(2-methyl-5-(4-(4-(1-methyl-1H-pyrazol-4-yl)phenyl)piperidine-1-carbonyl)phenyl)benzamide]",47.9,98,93.3,85.1,> 10000
"Cc1ccc(C(=O)N2CCC(c3ccc(-c4ccoc4)cc3)CC2)cc1NC(=O)c1ccc(NC(C)C)nc1 [Compound 235, N-(5-(4-(4-(furan-3-yl)phenyl)piperidine-1-carbonyl)-2-methylphenyl)-6-(isopropylamino)nicotinamide]",53.7,112,102,74.1,1580
"Cc1ccc(C(=O)N2CC(c3ccc(-c4ccnn4C)cc3)C2)cc1NC(=O)c1ccc(N2CCOCC2)nc1 [Compound 58, N-(2-methyl-5-(3-(4-(1-methyl-1H-pyrazol-5-yl)phenyl)azetidine-1-carbonyl)phenyl)-6-morpholinonicotinamide]",11.2,111,28.2,18.2,3720
"COc1ccc(-c2ccc(C3CCN(C(=O)c4ccc(C)c(NC(=O)c5ccc(NC(C)C)nc5)c4)CC3)cc2)cc1 [Compound 199, 6-(isopropylamino)-N-(5-(4-(4′-methoxy-[1,1′-biphenyl]-4-yl)piperidine-1-carbonyl)-2-methylphenyl)nicotinamide]",~676,59,724,562,617
"Cc1cccc(-c2ccc(C3CCN(C(=O)c4ccc(C)c(NC(=O)c5ccc(NC(C)C)nc5)c4)CC3)cc2)c1 [Compound 233, 6-(isopropylamino)-N-(2-methyl-5-(4-(3′-methyl-[1,1′-biphenyl]-4-yl)piperidine-1-carbonyl)phenyl)nicotinamide]",575,72,776,759,955
